Test results published in patent US4665224A, “Ester of (+) 6-methoxy-α-methyl-2-naphthalene acetic acid having mucosecretolytic, anti-inflammatory, analgesic, antipyretic activity, a process for its preparation and pharmaceutical compositions thereof” (priority 1984, dated 1987).

Columns and labels:
[1] = tested on: bronchial mucus; assay: Bronchosecretagogue activity, quantitative evaluation of the rabbit bronchial secretion; format: in vivo, rabbit (brown, male); details: for Percent increase of the bronchial mucus: second 4 h period versus first; for bronchosecretagogue / mucolytic activity: oral, result in words
Excerpt: Method of quantitative evaluation of the rabbit bronchial secretion according to Scuri R. et al. Boll. Chim. Farm. 119, 181-7; 1980.
Adult male brown rabbits (2.8-3.5 kg of body weight) to which a T shaped tracheal cannula is applied by surgical operation, as described in the above cited bibliographic reference, are used.
To the cannula, a container for periodical collection of the bronchial secretion is applied.
The study of mucoproduction, started on the fourth day after the operation, is divided into two periods (of 4 hours each), for collecting and measuring the secreted mucus. The action of the test drug is tested by administering it orally at the beginning of the second period of mucus collection and evaluating the percent increase in the mucus production (as measured gravimetrically) in the second period in comparison with the first period.

[2] = tested on: gastric lesions or submucosa hemorrhages; assay: Gastric tolerability, gastric ulcerogenesys by repeated drug administrations; format: in vivo, rat (Wistar albine, female); details: rat, oral for 5 days, result in words
Description: Method of gastric ulcerogenesys by repeated drug administrations.
Fed female Wistar albine rats (140-160 g of initial body weight) are used.
The test drug is administered orally for 5 days. At the end of the experiment, the rat's stomach is withdrawn, it is dissected along the lesser curvature, washed and observed in order to disclose the presence of either gastric lesions or manifest submucosa hemorrhages.

[3] = tested on: carrageenin induced oedema; assay: Antiphlogistic activity, carrageenin induced oedema; format: in vivo, rat (Wistar albine, female); details: 3 h; rat, oral, one hour before carrageenin; paw volume at three hours; read-out: ED50 in mg/kg os.
Description: Method of the carrageenin induced oedema according to Winter C. A. et al.--proc. Soc. Exp. Biol. Med--111, 544-7, 1962.
Female Wistar albine rats (120-160 grams of body weight) are utilized.
The test drug is administered orally one hour before injection of a carrageenin water suspension into the right hind paw (1%, injected volume […]).
The volume of the injected paw is recorded simultaneously with the carrageenin injection and three hours after the same by a plethysmometer (U. Basile, mod. 7150-Comerio, Varese).

[4] = tested on: yeast induced pyrexia; assay: Antipyretic activity, yeast induced pyrexia in the rat; format: in vivo, rat (Wistar albine, female); details: for ED50: Rattus norvegicus, po, read-out: ED50 in mg/kg os.
Description: Method of yeast induced pyrexia in the rat.
Female Wistar albine rats, weighing 100-140 g, are employed. Animals having a rectal basal temperature from 36° to 37° C. are selected.
The testing substances are administered orally simultaneously with the pyretic agent (dry brewer's yeast suspended in water at 20% concentration,administered volume 15 ml/kg, subcutaneously) to groups of 5 animals per dose.
After 4,5,6,7 and 24 hours from the treatment, the rectal temperature of the animals is recorded by an Ellab RM6 probe, connected to an Ellab mod. TE-3 thermometer.
The activity of the drugs is evaluated by utilizing a temperature index which is given by the algebraic sum of the differences in the rectal temperature between the measured values at different times and the basal value.

[5] = tested on: phenylquinone abdominal contractions; assay: Analgesic activity, method of phenylquinone (abdominal contractions); format: in vivo, mouse (Swiss albine, female); details: mouse, oral; for ED50: 20 min, 30 minutes before phenylquinone, contractions during 20 minutes, read-out: ED50 in mg/kg os.
Description: Female Swiss albine mice (20-25 g), fasting since 2 hours are employed.
The test drug is administered orally 30 minutes before endoperitoneal injection of phenylquinone (0.08 mg/mouse).
The characteristic abdominal contractions are counted individually during a 20 minutes period.

[6] = in vivo; details: mouse, in vivo, po
Description: (§1) Method for studying the lethal dose 50 (LD50) in the mouse after a single administration.
(§2) Groups of 10 Swiss albine, female, adult mice (20-22 grams of body weight) fasting from the evening preceding the test, are treated orally with varying doses of the test drup suspended into hydroxyethylcellulose (0.5% w/v.)
(§3) Thereafter, the animals are fed again.

[7] = tested on: mouse; assay: in vivo; details: oral, result in words
Description: as §1, §2, §3

[8] = listed as compound of the present invention

Compound	Percent increase of the bronchial mucus ([1]; 600 mg/kg os.) [%]	bronchosecretagogue / mucolytic activity [1, 8]	bronchosecretagogue / mucolytic activity ([1]; listed as ester of formula (I))	gastric tolerability [2, 8]	gastric tolerability ([2]; listed as ester of formula (I))	gastric tolerability ([2]; listed as such compound)	ED50 [3] [mg/kg]	ED50 [4] [mg/kg]	antipyretic activity ([4]; rat, oral, result in words)	ED50 [5] [mg/kg]	analgesic activity versus (+)6 methoxy-α-methyl-2-naphthalene acetic acid ([5]; result in words)	LD50 at 336 h [6] [mg/kg]	acute toxicity [7]	Percent increase of the bronchial mucus ([1]; 300 mg/kg os.) [%]
COc1ccc2cc([C@H](C)C(=O)OCC3=CCC(C(C)(C)O)CC3)ccc2c1 (single isomer, unassigned; (+)) [CO/1446]	32	has bronchosecretagogue activity in the rabbit	marked mucolytic activity of the bronchial secretion	well tolerated by the gastric mucose of the rat	very good gastric tolerability	better tolerated than (+)6-methoxy-α-methyl-2-naphthalene acetic acid	30	30	good antipyretic activity, though lower than the control	3.9	significantly more active	4000	very low acute toxicity	–
COc1ccc2cc([C@H](C)C(=O)O)ccc2c1 [(+)6-methoxy-α-methyl-2-naphthalene acetic acid, reference compound]	–	–	–	–	–	–	35	14	–	18.5	–	–	–	0
